Here are results for 19 compounds from US7749981B2, “Drug-eluting stents coated with non-nucleotide P2Y12 receptor antagonist compound” (Inspire Pharmaceuticals, Inc., priority 2005, dated 2010).

In the test the test system is washed human platelets. Nature of the test: Inhibition of ADP-induced platelet aggregation in washed human platelets. Type of test: cell-based. To be noted: for activity as antagonists of P2Y12-mediated platelet aggregation (in words): comment on Table 1 data; for IC50: agonist challenge (ADP) typically 1-5 μM, average of two experiments or more. The procedure: Isolation of Platelets: Human blood is obtained from informed healthy adult volunteers. Blood is collected into one-sixth volume of acid/citrate/dextrose (ACD) buffer (85 mM sodium citrate, 65 mM citric acid, and 100 mM glucose). Collected blood is placed in a water bath at 37° C. for 30 minutes. Blood is then centrifuged at 275×g for 16 minutes at room temperature and the platelet-rich plasma is removed and centrifuged at 2200×g for 13 minutes at room temperature. The platelet pellet is resuspended in 40 mL of HEPES-buffered Tyrode's solution (137 mM NaCl, 2.7 mM KCl, 1 mM MgCl2, 2 mM CaCl2, 12 mM NaHCO3, 0.36 mM NaH2PO4, 5.5 mM glucose, 5 mM HEPES pH 7.4, 0.35% bovine serum albumin or 0.35% human serum albumin) containing 10 U/mL heparin and 5 μM (final concentration) prostaglandin 12 (PGI2). The platelet suspension is incubated in a 37° C. water bath for 10 minutes and then 5 μM (final conc.) PGI2 is added just before centrifugation at 1900×g for 8 minutes. The resulting pellet is resuspended in 40 mL of HEPES-buffered Tyrode's solution containing 5 μM (final concentration) PGI2 and then is incubated for 10 minutes in a 37° C. water bath. A small aliquot (500 μL) of the platelet suspension is removed for platelet counting. Prior to centrifugation 5 μM (final concentration) PGI2 is added to the suspension and then the suspension is centrifuged at 1900×g for 8 minutes. The pellet is resuspended at a density of 5×10^8 cells/mL in HEPES-buffered Tyrode's solution containing 0.05 U/mL apyrase.
Aggregation Studies: ADP-induced platelet aggregation is determined by measuring the transmission of light through a 0.5 ml suspension of stirred (1000 rpm) washed platelets in a lumi-aggregometer at 37° C. (Chrono-Log Corp. Havertown, Pa.). The baseline of the instrument is set using 0.5 ml of Hepes-buffered Tyrode's solution. Prior to aggregation measurements, the platelet suspension is supplemented with 1 mg/ml fibrinogen. Platelet aggregation is initiated by the addition of indicated concentrations of ADP or other agonists, and the light transmission is continuously recorded for at least 8 min. When inhibitors of platelet aggregation are tested, platelets are incubated for 2 min in the presence of indicated concentrations of inhibitor before addition of ADP or other agonists, and the response is recorded for at least 8 min. The potency of agonists and inhibitors of platelet aggregation is calculated from both the rate of aggregation and the maximal extent of aggregation obtained for each determination by fitting the data to a four-parameter logistic equation using the GraphPad software package (GraphPad Corp. San Diego, Calif.).
IC50 values represent the concentration of antagonist necessary to inhibit by 50% the aggregation elicited by a given concentration of ADP.
Platelet IC50 data were determined using washed human platelets, according to the protocol of example 14. Agonist challenge (ADP) typically in the range of 1-5 μM.

Where [1] appears, read: read-out: PLATELET DATA IC50 (uM) Washed Platelets, washed human platelets.
Where [2] appears, read: Homo sapiens, Platelet, read-out: PLATELET DATA IC50 (uM) Washed Platelets, washed human platelets.

Read-outs that look alike come from different tables or passages of the source. Bounds are passed on as bounds.

As for “2-{6-[6-(3-Ethyl-ureido)-purin-9-yl]-2-phenylethynyl-tetrahydro-furo[3,4-d][1,3]dioxol-4-ylmethoxy}-nicotinic acid [Compound 26]”, the “activity as antagonists of P2Y12-mediated platelet aggregation (in words)” value (shortened to “activity as antagonists”) (washed human platelets) is on record as “show P2Y12 antagonist activity”. Moreover, under setting [1], the IC50 was determined as 1 µM.

On to `CCNC(=O)Nc1ncnc2c1ncn2C1OC(C(=O)N2CCC[C@H]2C(=O)O)C2OC(c3ccccc3)OC21` (stereo in doubt) [Compound 69, 1-{6-[6-(3-Ethyl-ureido)-purin-9-yl]-2-trans-phenyl-tetrahydro-furo[3,4-d][1,3]dioxole-4-carbonyl}-L-pyrrolidine-2-carboxylic acid], for which the “activity as antagonists” value (washed human platelets) is reported as “improved potency”. Moreover, the IC50 under setting [1] worked out at 0.441 µM. With `CC1(C)OC2C(COc3ccc(C(=O)O)cc3C(=O)O)OC(n3cnc4c(NC(=O)Nc5ccccc5)ncnc43)C2O1` (stereo not shown) [Compound 1, 4-{2,2-Dimethyl-6-[6-(3-phenyl-ureido)-purin-9-yl]-tetrahydro-furo[3,4-d][1,3]dioxol-4-ylmethoxy}-isophthalic acid], the IC50 under setting [2] amounted to 6.6 µM. Moreover, where the note is “washed human platelets”, the “activity as antagonists” value is “show P2Y12 antagonist activity”.

On to `O=C(Nc1ccccc1)Nc1ncnc2c1ncn2C1OC(COc2ncccc2C(=O)O)C2OC(c3ccccc3C(F)(F)F)OC21` (stereo not shown) [Compound 14, 2-[6-[6-(3-Phenyl-ureido)-purin-9-yl]-2-(2-trifluoromethyl-phenyl)-tetrahydro-furo[3,4-d][1,3]dioxol-4-ylmethoxy]-nicotinic acid], for which the IC50 under setting [2] worked out at 8.1 µM. The “activity as antagonists” value (washed human platelets) was “show P2Y12 antagonist activity”. The matching figures for `O=C(Nc1ccccc1)Nc1ncnc2c1ncn2C1OC(COc2ncccc2C(=O)O)C2OC(c3ccc4ccccc4c3)OC21` (stereo not shown) [Compound 19, 2-{2-Naphthalen-2-yl-6-[6-(3-phenyl-ureido)-purin-9-yl]-tetrahydro-furo[3,4-d][1,3]dioxol-4-ylmethoxy}-nicotinic acid]: 18 µM and “show P2Y12 antagonist activity”. The matching figures for `CCCCCCNC(=O)Nc1ncnc2c1ncn2C1OC(COc2ncccc2C(=O)O)C2OC(c3ccccc3)OC21` (stereo not shown) [Compound 24, 2-{6-[6-(3-Hexyl-ureido)-purin-9-yl]-2-phenyl-tetrahydro-furo[3,4-d][1,3]dioxol-4-ylmethoxy}-nicotinic acid]: 2.15 µM and “show P2Y12 antagonist activity”.

For the compound `O=C(Nc1ncnc2c1ncn2C1OC(C(=O)N2CCCC2C(=O)O)C2OC(Cc3ccccc3)OC21)NC1CCCC1` (stereo not shown) [Compound 36, 1-{2-Benzyl-6-[6-(3-cyclopentyl-ureido)-purin-9-yl]-tetrahydro-furo[3,4-d][1,3]dioxole-4-carbonyl}-pyrrolidine-2-carboxylic acid], the IC50 under setting [2] turned out to be 0.75 µM. Besides, under “washed human platelets”, the “activity as antagonists” value is listed as “show P2Y12 antagonist activity”. In the same order, the values of `CS(=O)(=O)NC(=O)NCC1OC(n2cnc3c(NC(=O)Nc4ccccc4)ncnc32)C2OC(Cc3ccccc3)OC12` (stereo not shown) [Compound 37, 1-(9-{2-Benzyl-6-[(3-methylsulfonyl-ureido)-methyl]-tetrahydro-furo[3,4-d][1,3]dioxol-4-yl}-9H-purin-6-yl)-3-phenyl-urea] are 15 µM and “show P2Y12 antagonist activity”.

As to `CCNC(=O)Nc1ncnc2c1ncn2C1OC(C(=O)N2CCC[C@H]2C(=O)O)C2O[C@H](c3ccccc3)OC21` (stereo partly drawn) [Compound 65, 1-{6-[6-(3-Ethyl-ureido)-purin-9-yl]-2-trans-phenyl-tetrahydro-furo[3,4-d][1,3]dioxole-4-carbonyl}-L-pyrrolidine-2-carboxylic acid], under setting [2], the half-maximal inhibitory concentration (IC50) came to 0.728 µM. For the same compound, for the setting “washed human platelets”, the “activity as antagonists” value is recorded as “improved potency”. In the same order, the values of `CCNC(=O)Nc1ncnc2c1ncn2C1OC(C(=O)N2CCC[C@@H]2C(=O)O)C2O[C@H](/C=C/c3ccccc3)OC21` (stereo partly drawn) [Compound 70, 1-{6-[6-(3-Ethyl-ureido)-purin-9-yl]-2-trans-styryl-tetrahydro-furo[3,4-d][1,3]dioxole-4-carbonyl}-D-pyrrolidine-2-carboxylic acid] are 0.397 µM and “improved potency”.

Consider `CCNC(=O)Nc1ncnc2c1ncn2C1OC(COCc2ccccc2C(=O)O)C2O[C@H](c3ccccc3)OC21` (stereo partly drawn) [Compound 107, 2-{6-[6-(3-Ethyl-ureido)-purin-9-yl]-2-trans-phenyl-tetrahydro-furo[3,4-d][1,3]dioxol-4-ylmethoxymethyl}-benzoic acid], for which the IC50 was under 0.1 µM under setting [2] and 0.057 µM under setting [1]. For the compound `CCNC(=O)Nc1ncnc2c1ncn2C1OC(COCc2ccccc2C(=O)O)C2O[C@@H](c3ccccc3)OC21` (stereo partly drawn) [Compound 108, 2-{6-[6-(3-Ethyl-ureido)-purin-9-yl]-2-cis-phenyl-tetrahydro-furo[3,4-d][1,3]dioxol-4-ylmethoxymethyl}-benzoic acid], the IC50 runs as follows: under setting [2], under 0.1 µM; under setting [1], 0.098 µM.

Turning to `CCNC(=O)Nc1ncnc2c1ncn2C1CC(COCc2ncccc2C(=O)O)C2OC(/C=C/c3ccccc3)OC21` (stereo not drawn) [Compound 130, 2-{6-[6-(3-Ethyl-ureido)-purin-9-yl]-2-trans-styryl-tetrahydro-cyclopenta[1,3]dioxol-4-ylmethoxymethyl}-nicotinic acid], the IC50 under setting [1] came out at 0.057 µM. Take `CCNC(=O)Nc1ncnc2c1ncn2C1OC(CCc2c(F)cccc2C(=O)O)C2O[C@H](c3ccccc3)OC21` (stereo partly drawn) [Compound 158, 2-(2-{6-[6-(3-Ethyl-ureido)-purin-9-yl]-2-trans-phenyl-tetrahydro-furo[3,4-d][1,3]dioxol-4-yl}-ethyl)-3-fluoro-benzoic acid]: the half-inhibitory concentration (IC50) under setting [2] is 8 µM. Moreover, the “activity as antagonists” value (washed human platelets) is “active molecules”. In the same order, the values of `CCNC(=O)Nc1ncnc2c1ncn2C1OC(CCC(=O)O)C2OC(C=Cc3ccccc3)OC21` (stereo not shown) [Compound 183, 3-{6-[6-(3-Ethyl-ureido)-purin-9-yl]-2-styryl-tetrahydro-furo[3,4-d][1,3]dioxol-4-yl}-propionic acid] are 0.376 µM and “P2Y12 antagonist activity can be obtained”.

Regarding `CCNC(=O)Nc1ncnc2c1ncn2C1CC(COCC(=O)O)C2OC(C=Cc3ccccc3)OC21` (stereo not drawn) [Compound 189, {6-[6-(3-Ethyl-ureido)-purin-9-yl]-2-trans-styryl-tetrahydro-cyclopenta[1,3]dioxol-4-ylmethoxy}-acetic acid], the “activity as antagonists” value (washed human platelets) is on record as “P2Y12 antagonist activity can be obtained”. Besides, under setting [1], the IC50 was 0.243 µM. Consider `CCNC(=O)Nc1ncnc2c1ncn2C1OC(CNCC(=O)O)C2O[C@H](/C=C/c3ccccc3)OC21` (stereo partly drawn) [Compound 191, ({6-[6-(3-Ethyl-ureido)-purin-9-yl]-2-trans-styryl-tetrahydro-furo[3,4-d][1,3]dioxol-4-ylmethyl}-amino)-acetic acid], for which the IC50 under setting [2] was found to be 0.512 µM. Also, the “activity as antagonists” value (washed human platelets) was “P2Y12 antagonist activity can be obtained”. In the same order, the values of `CCNC(=O)Nc1ncnc2c1ncn2C1OC(C(=O)O)C2O[C@H](/C=C/c3ccccc3)OC21` (stereo partly drawn) [Compound 210, 6-[6-(3-Ethyl-ureido)-purin-9-yl]-2-trans-styryl-tetrahydro-furo[3,4-d][1,3]dioxole-4-carboxylic acid] are 0.163 µM and “P2Y12 antagonist activity can be obtained”. In the same order, the values of `CCNC(=O)Nc1ncnc2c1ncn2C1CC(COC(=S)NCC(=O)O)C2O[C@H](/C=C/c3ccccc3)OC21` (stereo partly drawn) [Compound 233, {6-[6-(3-Ethyl-ureido)-purin-9-yl]-2-trans-styryl-tetrahydro-cyclopenta[1,3]dioxol-4-ylmethoxythiocarbonylamino}-acetic acid] are 0.503 µM and “show P2Y12 antagonist activity”.
